The values below come from ChEMBL document CHEMBL1649124, “Genetic variability among ampC genes from acinetobacter genomic species 3” (Antimicrob Agents Chemother, 2009).

Assay [1] has as its system Acinetobacter pittii. As to the kind of experiment: Ratio of MIC for Acinetobacter genomosp. 3 isolate 103 to MIC for Acinetobacter genomosp. 3 isolate 103 in presence of efflux pump inhibitor CCCP. The format is functional.
Assay [2] has as its system Acinetobacter pittii. Kind of assay: Ratio of MIC for Acinetobacter genomosp. 3 isolate 103 to MIC for Acinetobacter genomosp. 3 isolate 103 in presence of efflux pump inhibitor PAN. The format is functional.

As to `C[C@@H](O)[C@H]1C(=O)N2C(C(=O)O)=C(S[C@@H]3CN[C@H](C(=O)N(C)C)C3)[C@H](C)[C@H]12` [MEROPENEM], the Ratio in the assay with Acinetobacter pittii [1] amounted to 3; with Acinetobacter pittii [2] it was 4.
